Laboratory results reported in PubChem BioAssay (NCI).
“And” between values parts separate entries of the source, which are not always exact repeats. Identical values can stand only once.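 Step 1: Grow cells in 96-well plates. Step 2: Expose to compound for 48 hours at 5 concentrations. Step 3: Interpolate endpoints linearly; if unreached, use highest concentration. GI50 marks 50% less growth. At the TGI there is no net growth.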

Legend:
Experiment in all cases: NCI anticancer screen, dose series, 48 h
[1] = system: MCF7 breast
[2] = system: SF-539 CNS
[3] = system: PC-3 prostate
[4] = system: HOP-62 NSCLC
[5] = system: NCI-H460 lung
[6] = system: OVCAR-8 ovarian
[7] = system: SK-MEL-2 melanoma
[8] = system: UO-31 renal
[9] = system: HCT-15 colon
[10] = system: ACHN renal

CN1CC=C(c2cc(NC(=O)Nc3ccc(Oc4ccnc(NC(=O)C5CC5)c4)c(F)c3)cc(C(F)(F)F)c2)CC1
GI50 [1]: 0.153 µM
TGI [1]: 0.693 µM
GI50 [2]: 0.888 µM
TGI [2]: 1.86 µM
GI50 [3]: 0.242 µM
TGI [3]: 1.25 µM
GI50 [4]: 0.194 µM
TGI [4]: 1.12 µM
GI50 [5]: 0.194 µM
TGI [5]: 0.66 µM
GI50 [6]: 0.238 µM
TGI [6]: 5.12 µM
GI50 [7]: 1.13 µM
TGI [7]: 2.26 µM
GI50 [8]: 1.58 µM
TGI [8]: 3.57 µM
GI50 [9]: 1.08 µM
TGI [9]: 4.33 µM
GI50 [10]: 0.968 µM
TGI [10]: 2.67 µM

N#CC(C#N)=NNc1ccc2cn[nH]c2c1
TGI [1]: > 100 µM
TGI [2]: > 100 µM
TGI [3]: > 100 µM
TGI [4]: > 100 µM
TGI [5]: > 100 µM
TGI [6]: > 100 µM
TGI [7]: > 100 µM
TGI [8]: 28.1 µM
TGI [9]: > 100 µM
TGI [10]: > 100 µM

O=C1Nc2ccccc2/C1=C\c1c(-c2ccccc2)nc2sccn12
GI50 [1]: 2.95 µM
TGI [1]: 22.7 µM
TGI [2]: > 34.4 µM
GI50 [3]: 1.95 µM
TGI [3]: 17.4 µM
GI50 [4]: 2.32 µM
TGI [4]: 9.44 µM
GI50 [5]: 3.15 µM
TGI [5]: 43.9 µM
GI50 [6]: 4.58 µM
TGI [6]: > 100 µM
GI50 [7]: 5.87 µM
TGI [7]: 22.6 µM
GI50 [8]: 2.55 µM
TGI [8]: 13.3 µM
GI50 [9]: 1.08 µM
TGI [9]: 8.39 µM
GI50 [10]: 2.13 µM
TGI [10]: 14.5 µM

Cc1ccccc1C1=C(c2cn(C)c3ccccc23)C(=O)NC1=O
GI50 [1]: 9.2 µM
TGI [1]: > 25 µM
GI50 [2]: 13.7 µM
TGI [2]: > 25 µM
GI50 [3]: 9.74 µM
TGI [3]: > 25 µM
GI50 [4]: > 24.1 µM
TGI [4]: > 25 µM
GI50 [5]: 14.3 µM
TGI [5]: > 25 µM
GI50 [6]: > 22.5 µM
TGI [6]: > 25 µM
GI50 [7]: 24.9 µM
TGI [7]: > 25 µM
GI50 [8]: > 25 µM
TGI [8]: > 25 µM
GI50 [9]: 10.7 µM
TGI [9]: > 25 µM
GI50 [10]: 7.33 µM
TGI [10]: > 25 µM

CS(=O)(=O)CCNCc1ccc(-c2ccc3ncnc(Nc4ccc(OCc5cccc(F)c5)c(Cl)c4)c3c2)o1
GI50 [1]: 7.66 µM and 2.18 µM and 2.11 µM
TGI [1]: > 10 µM and 9.12 µM and 6.69 µM
GI50 [2]: > 10 µM and 9.11 µM and 7.5 µM
TGI [2]: > 10 µM and 98.1 µM and 29.9 µM
GI50 [3]: 9.68 µM and 5.3 µM and 4.45 µM
TGI [3]: > 10 µM and > 100 µM and 46.4 µM
GI50 [4]: > 10 µM and > 62.2 µM and 13 µM
TGI [4]: > 10 µM and > 100 µM and 43.9 µM
GI50 [5]: > 10 µM and 4.11 µM and 8.98 µM
TGI [5]: > 10 µM and > 29.3 µM and 48.7 µM
GI50 [6]: 6.83 µM and 4.17 µM and 4.12 µM
TGI [6]: > 10 µM and > 100 µM and 32.2 µM
GI50 [7]: > 10 µM and 2.46 µM and 5.9 µM
TGI [7]: > 10 µM and 8.59 µM and 23.1 µM
GI50 [8]: 2.39 µM and 0.807 µM and 1.08 µM
TGI [8]: > 10 µM and > 33 µM and 26.2 µM
GI50 [9]: 4.97 µM and 3.63 µM and 3.54 µM
TGI [9]: > 10 µM and > 100 µM and 27.6 µM
GI50 [10]: 0.539 µM and 0.435 µM and 0.323 µM
TGI [10]: > 10 µM and > 100 µM and 54.4 µM

COc1cc2c(NCCCCCO)ncnc2c(OC)c1OC
TGI [1]: > 100 µM
TGI [2]: > 100 µM
TGI [3]: > 100 µM
TGI [4]: > 100 µM
TGI [5]: > 100 µM
TGI [6]: > 100 µM
TGI [7]: > 100 µM
TGI [8]: > 100 µM
TGI [9]: > 100 µM
TGI [10]: > 100 µM

N#CC1C[C@@H]2CC3(CCC2CN1C(=O)c1ccccc1)OCCO3 (some centres undefined)
GI50 [1]: > 100 µM
TGI [1]: > 100 µM
TGI [2]: > 100 µM
GI50 [3]: > 100 µM
TGI [3]: > 100 µM
TGI [4]: > 100 µM
TGI [5]: > 100 µM
TGI [6]: > 100 µM
TGI [7]: > 21.6 µM
TGI [8]: > 100 µM
TGI [9]: > 100 µM
TGI [10]: > 100 µM

Oc1cc(N2CC2)c(O)cc1N1CC1
GI50 [1]: 0.387 µM
TGI [1]: 4.21 µM
GI50 [2]: 0.389 µM
TGI [2]: 2.38 µM
GI50 [3]: 1.85 µM
TGI [3]: 14.6 µM
GI50 [4]: 0.632 µM
TGI [4]: 2.99 µM
GI50 [5]: 0.21 µM
TGI [5]: 5.15 µM
GI50 [6]: 1.25 µM
TGI [6]: 9.44 µM
GI50 [7]: 1.46 µM
TGI [7]: 4.55 µM
GI50 [8]: 0.164 µM
TGI [8]: 0.818 µM
GI50 [9]: 0.727 µM
TGI [9]: 10.4 µM
GI50 [10]: 0.219 µM
TGI [10]: 0.59 µM

ClCCCSSCCCCl
TGI [1]: 97.6 µM
TGI [2]: 48.8 µM
TGI [3]: 85.5 µM
TGI [4]: > 100 µM
TGI [5]: > 100 µM
TGI [6]: > 75.8 µM
TGI [7]: > 100 µM
TGI [8]: > 100 µM
TGI [9]: 57.7 µM
TGI [10]: > 100 µM

CN1CCN(C(=O)[C@@]2(C)CC[C@]3(C)CC[C@]4(C)C(=CC[C@@H]5[C@@]6(C)CCC(=O)NC(C)(C)[C@@H]6CC[C@]54C)[C@@H]3C2)CC1
GI50 [1]: 1.83 µM
TGI [1]: 4.17 µM
GI50 [2]: 1.56 µM
TGI [2]: 2.9 µM
GI50 [3]: 0.813 µM
TGI [3]: 2.42 µM
GI50 [4]: 1.56 µM
TGI [4]: 3.13 µM
GI50 [5]: 1.69 µM
TGI [5]: 3.3 µM
GI50 [6]: 3.94 µM
TGI [6]: 14.8 µM
GI50 [7]: 1.94 µM
TGI [7]: 3.84 µM
GI50 [8]: 1.19 µM
TGI [8]: 2.51 µM
GI50 [9]: 1.2 µM
TGI [9]: 2.96 µM
GI50 [10]: 1.99 µM
TGI [10]: 4.11 µM

COC(=O)Oc1nn(C(=O)OC)c(=O)c2ccccc12
TGI [1]: > 100 µM
TGI [2]: > 100 µM
TGI [3]: > 100 µM
TGI [4]: > 100 µM
TGI [6]: > 100 µM
TGI [7]: > 100 µM
TGI [8]: > 100 µM
TGI [9]: > 100 µM
TGI [10]: > 100 µM

COc1ccc(-c2coc3cc(O)ccc3c2=O)cc1
TGI [1]: > 100 µM
TGI [2]: > 100 µM
TGI [3]: > 100 µM
TGI [4]: > 100 µM
TGI [5]: > 100 µM
TGI [6]: > 100 µM
TGI [7]: > 100 µM
TGI [8]: > 100 µM
TGI [9]: > 100 µM
TGI [10]: > 100 µM

COC(=O)C12CCC(C)(C)CC1C1=CCC3C4(C)CC(O)C(O)C(C)(C(=O)OC)C4CCC3(C)C1(CO)CC2 (centres undefined)
TGI [1]: 29.8 µM
TGI [2]: 31.6 µM
TGI [3]: 22 µM
TGI [4]: 32.2 µM
TGI [5]: 31.5 µM
TGI [6]: 31.5 µM
TGI [7]: 28.2 µM
TGI [9]: 29.1 µM
TGI [10]: 27.2 µM

CNS(=O)(=O)OCC1OC(n2cnc3cncnc32)C(O)C1O (centres undefined)
GI50 [1]: > 100 µM
TGI [1]: > 100 µM
GI50 [2]: > 100 µM
TGI [2]: > 100 µM
GI50 [3]: > 100 µM
TGI [3]: > 100 µM
GI50 [4]: > 100 µM
TGI [4]: > 100 µM
GI50 [5]: > 100 µM
TGI [5]: > 100 µM
GI50 [6]: > 100 µM
TGI [6]: > 100 µM
GI50 [7]: > 100 µM
TGI [7]: > 100 µM
GI50 [8]: > 100 µM
TGI [8]: > 100 µM
GI50 [9]: > 100 µM
TGI [9]: > 100 µM
GI50 [10]: > 100 µM
TGI [10]: > 100 µM

COc1cc(-c2cc3ncccc3c3nc(OCCN(C)C)c4cccnc4c23)cc(OC)c1OC
GI50 [1]: 0.389 µM
TGI [1]: 14.8 µM
GI50 [2]: 0.741 µM
TGI [2]: 3.39 µM
GI50 [3]: 0.731 µM
TGI [3]: > 100 µM
GI50 [4]: 0.75 µM
TGI [4]: 3 µM
GI50 [5]: 0.349 µM
TGI [5]: 1.88 µM
GI50 [6]: 0.339 µM
TGI [6]: 1.94 µM
GI50 [7]: 0.744 µM
TGI [7]: 3.71 µM
GI50 [8]: 0.28 µM
TGI [8]: 1.32 µM
GI50 [9]: 0.502 µM
TGI [9]: 23.4 µM
GI50 [10]: 0.281 µM
TGI [10]: 1.54 µM
